Values joined by “and” are separate entries in the source; they are usually repeats but may differ in a detail not shown here. Identical values can stand only once.
Legend:
Format in all cases: in vitro ADME
CYP2C9 = CYP2C9 (Homo sapiens, UniProt P11712); test: CYP inhibition, CYP2C9; set-up: unit not given here
Experimental: (§1) At pre-set time-points, blood concentration of JH4 was determined by LC-MS/MS analysis[22],[23]. Other chemicals were also tested using similar protocol. In vitro ADME studies (plasma protein binding, CYP inhibition, microsomal stability, plasma stability, and hERG inhibition) were performed by New Drug Development Center (Daegu, Korea) using standard protocols[24],[25].

CYP1A2 = target: T1, CYP1A2 (Homo sapiens, UniProt P05177); test: CYP inhibition, CYP1A2
T1 sequence (P05177 1-516): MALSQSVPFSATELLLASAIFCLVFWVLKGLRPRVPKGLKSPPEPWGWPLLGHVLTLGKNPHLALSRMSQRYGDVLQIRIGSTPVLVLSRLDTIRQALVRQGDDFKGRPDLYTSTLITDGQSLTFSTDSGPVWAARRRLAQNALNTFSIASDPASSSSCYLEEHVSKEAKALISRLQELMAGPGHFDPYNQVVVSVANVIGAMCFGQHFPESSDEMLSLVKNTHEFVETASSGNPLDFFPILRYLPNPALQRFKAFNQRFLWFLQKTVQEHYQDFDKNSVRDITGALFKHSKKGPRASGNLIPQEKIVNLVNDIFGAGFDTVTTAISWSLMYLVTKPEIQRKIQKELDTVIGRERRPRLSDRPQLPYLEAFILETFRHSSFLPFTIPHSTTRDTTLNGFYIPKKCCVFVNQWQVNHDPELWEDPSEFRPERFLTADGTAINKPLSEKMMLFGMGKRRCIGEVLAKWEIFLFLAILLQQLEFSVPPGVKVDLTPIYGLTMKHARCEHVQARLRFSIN
Experimental: as §1

CYP2C19 = CYP2C19 (Homo sapiens, UniProt P33261); test: CYP inhibition, CYP2C19
Experimental: as §1, with “For PK analysis, 5 mg/kg of JH4 in 10% DMSO, 5% […] solution were intravenously injected and 10 mg/kg of JH4 in 10% NMP and 90% PEG400 solution were orally delivered. At” for “At”

Sequence of CYP2C19 (P33261 whole entry): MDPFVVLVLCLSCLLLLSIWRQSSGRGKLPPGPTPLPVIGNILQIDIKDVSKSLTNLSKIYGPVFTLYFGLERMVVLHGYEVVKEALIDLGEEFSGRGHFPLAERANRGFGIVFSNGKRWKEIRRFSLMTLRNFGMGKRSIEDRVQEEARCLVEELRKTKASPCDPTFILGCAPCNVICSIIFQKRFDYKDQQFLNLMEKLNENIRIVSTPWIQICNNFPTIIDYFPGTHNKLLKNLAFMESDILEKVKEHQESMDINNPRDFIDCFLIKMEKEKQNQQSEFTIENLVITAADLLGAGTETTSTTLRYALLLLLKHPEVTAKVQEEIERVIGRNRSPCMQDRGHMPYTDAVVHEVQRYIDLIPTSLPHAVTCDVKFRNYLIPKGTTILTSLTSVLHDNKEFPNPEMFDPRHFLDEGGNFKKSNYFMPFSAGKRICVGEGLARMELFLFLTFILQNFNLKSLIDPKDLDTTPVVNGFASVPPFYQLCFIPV
Sequence of CYP2C9 (P11712 whole entry): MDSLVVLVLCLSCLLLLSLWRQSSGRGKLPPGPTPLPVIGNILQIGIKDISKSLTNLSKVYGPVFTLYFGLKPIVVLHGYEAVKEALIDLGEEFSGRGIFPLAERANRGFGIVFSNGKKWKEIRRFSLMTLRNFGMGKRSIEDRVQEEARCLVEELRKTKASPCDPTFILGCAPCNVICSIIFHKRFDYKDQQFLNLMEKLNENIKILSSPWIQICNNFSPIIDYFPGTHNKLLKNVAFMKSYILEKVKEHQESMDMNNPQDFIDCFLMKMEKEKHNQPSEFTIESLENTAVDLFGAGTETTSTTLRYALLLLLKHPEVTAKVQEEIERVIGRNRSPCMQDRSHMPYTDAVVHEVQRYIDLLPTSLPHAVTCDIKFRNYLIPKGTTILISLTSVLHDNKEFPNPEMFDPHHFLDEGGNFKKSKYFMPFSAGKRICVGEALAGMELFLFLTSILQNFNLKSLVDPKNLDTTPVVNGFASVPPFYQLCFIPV

Structure (SMILES): CC(=O)N1CCN(c2ccc(OCC3COC(Cn4ccnc4)(c4ccc(Cl)cc4Cl)O3)cc2)CC1 (stereo not drawn) [Ketoconazole, reference compound]
- CYP inhibition (CYP2C9): 100
- CYP inhibition (CYP1A2): 99.1
- CYP inhibition (CYP2C19): 99.5 and > 100

From article PMC7782499, “Progerinin, an optimized progerin-lamin A binding inhibitor, ameliorates premature senescence phenotypes of Hutchinson-Gilford progeria syndrome” (Communications Biology, 2021)
